Where “and” joins values, the source holds several entries; their conditions need not be identical. Equal values may be shown once.

The experiment has as its system EWS502 FKBP12^F36V-EWS/FLI; EWS/FLI^−/− cells. In words: Quantitative MS proteomics, EWS502 FKBP12F36V-EWS/FLI; EWS/FLI-/- cells. It is filed as cell-based, Homo sapiens. The following applies: for TMT intensity per TMT channel: biological replicates. On the procedure: Cell pellets from PATU-8902 and EWS502 cells were lysed using 8 M urea, 200 mM 4-(2-hydroxyethyl)-1-piperazinepropanesulfonic acid (EPPS) at pH 8.5 with protease inhibitors. Samples were further homogenized and DNA was sheered via sonication using a probe sonicator (20 × 0.5 s pulses; level 3). Total protein was determined using a BCA assay and stored at −80 °C until future use. A total of 100 µg of protein was aliquoted for each condition and TMT channel for further downstream processing. Protein extracts were reduced using 10 mM dithiothreitol (DTT) for 30 min at room temperature. Next, samples were alkylated with 20 mM iodoacetamide for 45 min in the dark at room temperature. To facilitate the removal of incompatible reagents, proteins were precipitated using chloroform methanol. Briefly, to 100 µL of each sample, 400 µL of methanol was added, followed by 100 µL of chloroform with thorough vortexing. Next, 300 µL of HPLC grade water was added and samples were vortexed thoroughly. Each sample was centrifuged at 14,000 × g for 5 min at room temperature. The upper aqueous layer was removed and the protein pellet was washed twice with methanol and centrifuged at 14,000 × g for 5 min at room temperature. Protein pellets were resolubilized in 200 mM EPPS buffer and digested overnight with Lys-C (1:100, enzyme:protein ratio) at room temperature. The next day, trypsin (1:100 ratio) was added and incubated at 37 °C for an additional 6 h in a ThermoMixer set to 1000 RPM.
To each digested sample, 30% anhydrous acetonitrile was added and 100 µg of peptides were labeled using 200 µg of TMT reagent (TMT1-TMT11). Following labeling, a 5% hydroxylamine solution was used to quench excess TMT reagent. To equalize protein loading, a ratio check was performed by pooling 2 µg of each TMT-labeled sample. Samples were pooled and desalted using in-house packed C18 StageTips and analyzed by LC-MS/MS. Normalization factors were calculated from this label check, samples were mixed 1:1 across all TMT channels and desalted using a 100 mg Sep-Pak solid phase extraction cartridge. Eluted pooled peptides were further fractionated with basic-pH reverse-phase (bRP) HPLC using an Agilent 300 extend C18 column and collected into a 96 deep-well plate. Samples were consolidated into 24 fractions, and 12 nonadjacent fraction were desalted using StageTips prior to analyses using LC-MS/MS[35]–[37].
All mass spectrometry data was acquired using an Orbitrap Fusion mass spectrometer in-line with a Proxeon NanoLC-1000 UHPLC system. Peptides were separated using an in-house 100 µm capillary column packed with 40 cm of Accucore 150 resin (2.6 µm, 150 Å) (Thermo Fisher Scientific) using a 180 min LC gradient per fraction. Eluted peptides were acquired using synchronous precursor selection (SPS-MS3) method for TMT quantification. Briefly, MS1 spectra were acquired at 120 K resolving power with a maximum of 50 ms in the Orbitrap. MS2 spectra were acquired by selecting the top ten most abundant features via collisional induced dissociation (CID) in the ion trap using an automatic gain control (AGC) of 15 K, quadrupole isolation width of 0.7 m/z and a maximum ion time of 100 ms. For MS3 acquisition, a synchronous precursor selection of ten fragment ions was acquired with an AGC of 150 K for 150 ms and a normalized collision energy of 55.
All acquired raw data were converted to mzXML using Raw File Reader (v3.0.77). Spectra were processed using Comet (2019.01.5)[39]–[41], search results were filtered using the LDA function MASS Package in R, and data were processed using an in-house informatics pipeline[42]–[44]. Custom code was not developed in this study. Briefly, peptide spectral libraries were first filtered to a peptide false discovery rate (FDR) of less than 1% using linear discriminant analysis employing a target decoy strategy. […]

For `CC[C@H](C(=O)N1CCCC[C@H]1C(=O)O[C@H](CCc1ccc(OC)c(OC)c1)c1ccccc1OCC(=O)NCCCCCCC(=O)N[C@H](C(=O)N1C[C@H](O)C[C@H]1C(=O)N[C@@H](C)c1ccc(-c2scnc2C)cc1)C(C)(C)C)c1cc(OC)c(OC)c(OC)c1` [dTAG^V-1], the “Downstream EWS/FLI targets such as NKX2-2” value (1 μM) is “decrease”. Moreover, the “FKBP12F36V-EWS/FLI abundance, proteomics” value (1 μM, 6 h) is on record as “pronounced loss”. In addition, the “TMT intensity per TMT channel” value is, setting by setting: (protein ALX1, 2 h) 329.39 and 330.899 and 363.825; (protein ALX1, 6 h) 447.307 and 474.897 and 456.686; (protein ALX1, 24 h) 404.298 and 454.379 and 455.33; (protein ALX4, 2 h) 469.052 and 457.885 and 499.883; (protein ALX4, 6 h) 458.233 and 484.524 and 491.274; (protein ALX4, 24 h) 439.297 and 450.367 and 443.433. Besides, the “TMT intensity per TMT channel” value reads like this: (protein HOXD13, 2 h) 710.117 and 733.089 and 700.291; (protein HOXD13, 6 h) 834.508 and 881.589 and 912.211; (protein HOXD13, 24 h) 931.777 and 1032.27 and 996.28; (protein PHOX2B, 2 h) 138.138 and 127.877 and 140.273; (protein PHOX2B, 6 h) 146.64 and 175.628 and 155.142; (protein PHOX2B, 24 h) 163.818 and 130.026 and 156.319. For the same compound, the “TMT intensity per TMT channel” value is 2102.8 and 2152.89 and 2069.05 (protein SLC12A2, 2 h); 2768.92 and 2608.81 and 2791.59 (protein SLC12A2, 6 h); 2883.76 and 2924.13 and 2976.61 (protein SLC12A2, 24 h). In addition, the “Fold change > 2” value (protein HMGCR, 1 μM, 6 h) is given as “+ (Fold change in which '+' refers to fold change > 2.)”. Further, the “log2 (Fold change) compared to DMSO” value runs as follows: (protein HMGCR, 1 μM, 6 h) 1.415; (protein NOB1, 1 μM, 6 h) 0.3965; (protein PRCP, 1 μM, 6 h) -0.5172; (protein SQLE, 1 μM, 6 h) 0.8919; (protein TMEM126A, 1 μM, 6 h) -0.3183.
